Laboratory results as given in patent US10512673B2, “Use of peptide-based inhibitors of the stat3-IL10 pathway for treating bacterial infection and granulomatous disease” (The United States of America, as Represented by the …, priority 2015, dated 2019).
Entries after “also recorded” stand apart in the source; their conditions may differ. Where no end group is shown, it is not given here. [ ]: non-standard residue; d: D form. The star is where a group is joined. Palmitoyl = CCCCCCCCCCCCCCCC(=O)*

Experiments:
[1] = system: Mycobacterium tuberculosis (Erdman strain); conditions: in vivo
stat3 = system: stat3; design: species or system C57BL/6 mice; conditions: mouse, in vivo
Il-10 [2] = system: Il-10; design: species or system C57BL/6 mice; conditions: mouse, in vivo
pSTAT3 (pY705) = assay: ELISA for pSTAT3 in lung homogenates; assay type: in vivo, C57BL/6 mice; conditions: after two weeks of treatment (100 μg/dose), vs untreated infected mice
Description: Lung homogenates were screened for pSTAT3 (pY705 (tyrosine 705)) by ELISA following manufacturer's recommendations (Life Technologies). Briefly, the lung homogenates were re-suspended in the cell extraction buffer and incubated during 30 minutes on ice with intermittent vortexing followed by pelleting of the cell debris. Supernatants from each sample were collected and screened for their content of STAT3 (pY705). Standards were prepared using purified recombinant phosphorylated STAT3 protein. Thereafter, 100 μl of standards and diluted samples or control aliquots were distributed into microtiter wells and were incubated in the wells pre-coated with anti-pSTAT3 antibody. The reactions were developed using the detection anti-pSTAT3 antibody followed by 30 minutes incubation at RT with anti-rabbit IgG HRP. The reactions were visualized by incubation with a chromogenic substrate of HRP during 30 minutes at room temperature. The reactions were stopped with 100 μl of stop solution added to each well. Absorbance for each well was read at 450 nm.

Il-10 [3] = assay: Cytometric bead array for IL-10 in lung homogenates; design: species or system C57BL/6 mice; conditions: mouse, in vivo
nos2 [4] = assay: RT-PCR of nos2 transcript in lungs; assay type: in vivo, C57BL/6 mice; conditions: for mRNA nos2 expression (in words): mouse, in vivo
arg1 [5] = assay: RT-PCR of arg1 transcript in lungs; assay type: in vivo, C57BL/6 mice; conditions: for mRNA arg1 expression (in words): mouse, in vivo
nos2 [6] = assay: NOS2 activity in lung homogenates (Griess reaction); assay type: in vivo, C57BL/6 mice; conditions: 100 μg/dose, vs untreated infected mice
Description: (§1) The quantification of end effector molecules and enzymes involved in the host antimicrobial activity in the lungs of mice were performed using lung homogenates obtained as indicated above. Lung homogenate supernatants were used in a Griess reaction (G 7921, Molecular probes, Invitrogen, Eugene, Oreg.), Arginase assay (Bioassay Systems, DARG-200), NADPH (Bioassay Systems, ECNP-100), and lysozyme (Molecular Probes E-22013).
For the Griess reaction, reagents were acclimated at room temperature for 20 min prior to the assay. Thereafter, the samples were centrifuged at 1200 rpm for 2 min and the Griess reaction was performed following the manufacturer's instructions. Briefly, samples and prepared standards were diluted following the manufacturer's instructions with distilled sterile water in a 96 well plate. 20 μl of Griess reaction were added to each reaction well. Samples and standards were incubated for 30 minutes in the dark. Thereafter, samples were read using a Biotech Synergy 2 Multi-Mode Micro Plate Reader [U5] spectrophotometer at 546 nm.

arg1 [7] = assay: Arginase activity in lung homogenates; assay type: in vivo, C57BL/6 mice; conditions: 100 μg/dose, vs untreated infected mice
Description: as §1
The level of arginase activity in each lung homogenate was performed using the Quanti-Chrom Arginase Assay Kit (Bio Assay Systems, Hayward, Calif.). Briefly, protein concentration was normalized to 100 μg/ml. As a control, an aliquot of normalized protein was heat-inactivated at 90° C. for 10 min. 40 μl of untreated or heat-inactivated sample was incubated at 37° C. for 60 min with 10 μl of 5× reagent. Thereafter, the reaction was processed as recommended by the manufacturer and analyzed in a plate reader (Bio-Rad, Hercules, Calif.) at an absorbance of 430 nm. The absorbance of the heat-inactivated sample was subtracted from the respective untreated sample and then compared to urea standards. Activity of the arginase was reported in mU/mg of protein.

NADPH = NADPH assay in lung homogenates; assay type: in vivo, C57BL/6 mice; conditions: 100 μg/dose, vs untreated infected mice
Description: as §1
For the NADPH assay, each lung homogenate was mixed in a 1.5 mL Eppendorf tube with 100 μL NADPH extraction buffer for NADPH determination. Extracts then were heated at 60° C. for 5 min and then 20 μl assay buffer and 100 μl of the opposite extraction buffer were added to neutralize the extracts. Samples were briefly vortexed and centrifuged at 13,000 rpm for 5 min. The resulting supernatant was used for NADPH assays. 40 μl of standards were then transferred into wells of a clear bottom 96-well plate. For each well of the reaction, 80 μL working reagent were added per well quickly. Optical density for time “zero” (OD0) optical density after 30 min incubation (OD30) at room temperature were read at 565 nm (520-600 nm).

lysozyme = assay: Lysozyme assay in lung homogenates; assay type: in vivo, C57BL/6 mice; conditions: 100 μg/dose, vs untreated infected mice
Description: as §1
The Lysozyme assay was performed as per manufacturer's instructions. Briefly, experimental samples were first diluted in 1× reaction buffer. A volume of 50 μl was used for each reaction. Then, 50 μl of the 50 μg/ml DQ lysozyme substrate were added to each microplate well containing the experimental or the standard curve samples. The reaction mix was then incubated at 37° C. for 30 min protected from light. The fluorescence in each of the samples was measured at absorption maxima at ˜494 nm and fluorescence emission maxima at ˜518 nm.

TNFα = assay: Cytometric bead array for TNFα in lung homogenates; assay type: in vivo, C57BL/6 mice; conditions: CBA, 100 μg/dose, vs control mice
IFNγ = assay: Cytometric bead array for IFNγ in lung homogenates; assay type: in vivo, C57BL/6 mice; conditions: CBA, 100 μg/dose, vs control mice
IL-12p40 = assay: Cytometric bead array for IL-12p40 in lung homogenates; assay type: in vivo, C57BL/6 mice; conditions: CBA, 100 μg/dose, vs control mice
bcl-2 [8] = assay: qRT-PCR of bcl-2 transcript in lungs; assay type: in vivo, C57BL/6 mice; conditions: 100 μg/dose
Description: (§2) The upper right lobe of the lungs from each mouse were homogenized in Trizol (Invitrogen) using Next Advance bullet blender (Averill Park, N.Y.) and frozen at −80° C. immediately. RNA was extracted following the manufacturer's protocol. Trizol DNA was digested with RQ1 RNase-free DNase (Promega, Madison, Wis.) and RNA was re-isolated using Trizol. Finally, the concentration of RNA in each sample was measured by spectrophotometry and the RNA was reverse transcribed with M-Mulv (New England Bio Labs, Ipswich, Mass.) and random hexamers (Roche, Basel, Switzerland).
(§3) When lung homogenates from each mouse were used to determine the levels of expression of Bcl-2 and Atg-5 protein using ELISA, the results were similar to those obtained by qRT-PCR.

bax = assay: qRT-PCR of bax transcript in lungs; assay type: in vivo, C57BL/6 mice; conditions: 100 μg/dose
Description: as §2, §3

atg5 = assay: qRT-PCR of atg5 transcript in lungs; assay type: in vivo, C57BL/6 mice; conditions: 100 μg/dose
Description: as §2, §3

beclin-1 = assay: qRT-PCR of beclin-1 transcript in lungs; assay type: in vivo, C57BL/6 mice; conditions: 100 μg/dose
Description: as §2, §3

IL-6 = assay: Cytometric bead array for IL-6 in lung homogenates; assay type: in vivo, C57BL/6 mice; conditions: CBA, 100 μg/dose, vs control mice
[9] = system: granuloma lesions in the lungs; assay: Lung histopathology (H&E); design: species or system C57BL/6 mice; conditions: mouse, in vivo
pSTAT3 = assay: Immunohistochemistry for pSTAT3 in lung tissue sections; design: species or system C57BL/6 mice; conditions: mouse, in vivo
[10] = system: Mycobacterium tuberculosis (Erdman strain); conditions: in vivo; remark: listed apart in the source
bcl-2 [11] = assay: ELISA for Bcl-2 protein in lung homogenates; assay type: in vivo, C57BL/6 mice; conditions: 100 μg/dose, vs untreated infected mice
Excerpt: as §3

[12] = mouse, in vivo
[13] = RT-PCR, lungs, 100 μg/dose, vs control mice

| Substance | change of pulmonary CFU (in words) [1] | pulmonary expression of stat3 transcript (stat3) | pulmonary expression of il-10 transcript (Il-10 [2]) | level of pSTAT3 in lung homogenates (pSTAT3 (pY705)) | level of IL-10 in lung homogenates (Il-10 [3]) | NOS2 activity (concentration of NO) (nos2 [6]) | Arg1 activity (arg1 [7]) | NADPH activity (pyridine nucleotide) (NADPH) | lysozyme activity (DQ substrate) (lysozyme) | level of TNFα in the lungs (TNFα) | level of IFNγ expression in the lungs (IFNγ) | expression level of IL-12p40 in the lungs (IL-12p40) | expression of bcl-2 transcript (in words) (bcl-2 [8]) | expression of bax transcript (in words) (bax) | expression of atg5 transcript (in words) (atg5) | expression of beclin-1 transcript (in words) (beclin-1) | reduction of pulmonary bacterial load [1] | mRNA nos2 expression (in words) (nos2 [4]) | mRNA arg1 expression (in words) (arg1 [5]) | expression level of IL-6 in the lungs (IL-6) | further results |
| --- | --- | --- | --- | --- | --- | --- | --- | --- | --- | --- | --- | --- | --- | --- | --- | --- | --- | --- | --- | --- | --- |
| Ac-EETQLSPKTSGFGSDTSGHLK-E-Pal (Ac-[dE][dE][dT][dQ][dL][dS][dP][dK][dT][dS]G[dF]G[dS][dD][dT][dS]G[dH][dL][dK](Palmitoyl); not fully specified; also: name K-E-Pal / C-terminal Glu-palmitoyl: Glu between Lys and palmitoyl?) [IL10R1-14] | slight increase; also recorded: only the group of mice receiving the peptide inhibitor ST3-H2A2 had reduced the pulmonary CFU | no significant changes | no significant changes | no significant changes | no significant changes | lower or no increase | increased | lower or no increase | lower or no increase | reduced | increased and up | down | reduced expression | reduced expression | increased expression | reduced expression | – | – | – | – | increase in nos2 transcript expression (nos2 [4]; [13]): 2 fold; increase in arg1 transcript expression (arg1 [5]; [13]): 10 fold |
| ε-Pal-KLVTLPLISSLQSSE-NH2 (K(Palmitoyl)LVTLPLISSLQSSE-NH2; N-terminus assumed; SMILES CCCCCCCCCCCCCCCC(=O)NCCCC[C@H](N)C(=O)N[C@@H](CC(C)C)C(=O)N[C@H](C(=O)N[C@H](C(=O)N[C@@H](CC(C)C)C(=O)N1CCC[C@H]1C(=O)N[C@@H](CC(C)C)C(=O)N[C@H](C(=O)N[C@@H](CO)C(=O)N[C@@H](CO)C(=O)N[C@@H](CC(C)C)C(=O)N[C@@H](CCC(N)=O)C(=O)N[C@@H](CO)C(=O)N[C@@H](CO)C(=O)N[C@@H](CCC(=O)O)C(N)=O)[C@@H](C)CC)[C@@H](C)O)C(C)C) [IL10R1-7] | only the group of mice receiving the peptide inhibitor ST3-H2A2 had reduced the pulmonary CFU | lower levels | lower levels | lower levels | lower levels | significantly elevated | reduced or not changed | significantly elevated | significantly elevated | reduced and down | decreased and down | decreased and up | reduced expression | reduced expression | increased expression | reduced expression | 0.6 | reduction in transcript expression for nos2 and arg1 but not significantly for nos2 | reduction | decreased | histopathology of H&E stained lung sections [9]: increased numbers of clusters and highly packed lymphocytes; pSTAT3 staining by IHC in lung tissue sections (pSTAT3): reduced levels of pSTAT3 staining in the center of the granuloma lesions |
| LDTRYLEQLHKLY [ST3-H2A2] | – | no significant changes | increased levels of expression | little change | little change | significantly elevated | reduced or not changed | significantly elevated | significantly elevated | reduced | decreased and down | increased and up | – | – | – | – | 1.7 log10 CFU | increased more significantly | decreased expression | increased | reduction of pulmonary CFU [1]: 0.6 log10; reduction of splenic bacilli load [10]: 0.9 log10CFU; histopathology of H&E stained lung sections [9]: increased numbers of clusters and highly packed lymphocytes; pSTAT3 staining by IHC in lung tissue sections (pSTAT3): reduced levels of pSTAT3 staining in the center of the granuloma lesions; increase in expression of bcl-2 transcript (bcl-2 [8]): > 3 fold; increase in expression of bax transcript (bax): > 3 fold; increase in expression of atg5 transcript (atg5): > 3 fold; increase in expression of beclin-1 transcript (beclin-1): > 3 fold; level of Bcl-2 protein in lung homogenates (bcl-2 [11]): significantly increased; adverse effects during treatment (body weight) [12]: mild weight loss |
